Drawing on EP4741392A1, “1H-PYRAZOLO[4,3-C]PYRIDINE COMPOUND, AND COMPOSITION THEREOF AND USE THEREOF” (Shenzhen TargetRx Co., Ltd., priority 2023, dated 2025), this text covers IC50 for 1 substance.

Common to all, as to assay type: biochemical
In one experiment the target is T1, EGFR (Homo sapiens, UniProt P00533).
T1 construct: purchased Carna 08-115
Briefly: Kinase activity inhibition assay (HTRF TK Kit), selectivity. An outline of the steps:
(§1)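 Read-out: 665/620 nm HTRF ratio after 1 h room-temperature detection with streptavidin-XL665 and TK antibody-cryptate. Kinase reactions (compound, substrate/ATP, enzyme, assembled on ice) ran at room temperature beforehand. Inhibition normalised to blank and positive controls, IC50 by variable-slope sigmoidal fit.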

A further experiment has as its target T2, ITK (Homo sapiens, UniProt Q08881).
T2 construct: purchased Carna 08-181
T2 sequence (Q08881 1-620): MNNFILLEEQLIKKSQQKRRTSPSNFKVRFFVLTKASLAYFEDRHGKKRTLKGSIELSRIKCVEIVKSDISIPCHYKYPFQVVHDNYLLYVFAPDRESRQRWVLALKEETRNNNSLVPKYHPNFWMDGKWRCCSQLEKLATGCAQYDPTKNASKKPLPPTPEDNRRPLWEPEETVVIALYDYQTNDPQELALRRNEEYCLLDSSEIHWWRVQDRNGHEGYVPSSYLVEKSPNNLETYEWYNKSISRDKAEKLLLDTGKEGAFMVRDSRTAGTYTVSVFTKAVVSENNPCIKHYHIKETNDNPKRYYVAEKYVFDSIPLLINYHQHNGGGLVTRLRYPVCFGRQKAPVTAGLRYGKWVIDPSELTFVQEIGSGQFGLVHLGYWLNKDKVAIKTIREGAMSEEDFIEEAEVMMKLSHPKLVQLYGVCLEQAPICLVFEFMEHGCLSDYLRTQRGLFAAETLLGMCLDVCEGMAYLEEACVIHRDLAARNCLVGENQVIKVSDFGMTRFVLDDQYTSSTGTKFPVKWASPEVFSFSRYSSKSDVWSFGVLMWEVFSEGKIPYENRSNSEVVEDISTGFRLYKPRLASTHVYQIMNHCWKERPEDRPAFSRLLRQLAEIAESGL
The experiment is described as above. An outline of the steps: as §1

In a further experiment the target is T3, TEC (Homo sapiens, UniProt P42680).
T3 construct: purchased Carna 08-182
T3 sequence (P42680 1-631): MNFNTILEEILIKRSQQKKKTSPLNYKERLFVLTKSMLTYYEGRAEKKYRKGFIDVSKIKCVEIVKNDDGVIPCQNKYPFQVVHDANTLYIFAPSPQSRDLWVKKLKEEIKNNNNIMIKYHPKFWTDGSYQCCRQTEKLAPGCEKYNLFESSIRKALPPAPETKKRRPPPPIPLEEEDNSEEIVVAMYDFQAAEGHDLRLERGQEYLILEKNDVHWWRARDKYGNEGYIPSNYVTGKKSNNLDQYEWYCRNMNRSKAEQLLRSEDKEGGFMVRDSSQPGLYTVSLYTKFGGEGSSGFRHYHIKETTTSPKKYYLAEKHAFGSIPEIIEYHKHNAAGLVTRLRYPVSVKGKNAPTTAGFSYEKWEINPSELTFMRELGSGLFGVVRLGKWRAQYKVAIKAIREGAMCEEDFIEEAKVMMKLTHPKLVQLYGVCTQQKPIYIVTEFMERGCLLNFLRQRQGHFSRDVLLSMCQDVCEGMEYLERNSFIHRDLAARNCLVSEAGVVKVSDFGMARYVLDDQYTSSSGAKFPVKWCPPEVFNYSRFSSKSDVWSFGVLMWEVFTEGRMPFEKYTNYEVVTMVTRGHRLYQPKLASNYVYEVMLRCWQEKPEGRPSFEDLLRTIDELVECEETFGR
The description is as above. The procedure, abridged:
as §1

A further experiment deals with T4, BTK kinase (Homo sapiens, UniProt Q06187).
T4 construct: purchased Invitrogen PV3587
T4 sequence (Q06187 whole entry): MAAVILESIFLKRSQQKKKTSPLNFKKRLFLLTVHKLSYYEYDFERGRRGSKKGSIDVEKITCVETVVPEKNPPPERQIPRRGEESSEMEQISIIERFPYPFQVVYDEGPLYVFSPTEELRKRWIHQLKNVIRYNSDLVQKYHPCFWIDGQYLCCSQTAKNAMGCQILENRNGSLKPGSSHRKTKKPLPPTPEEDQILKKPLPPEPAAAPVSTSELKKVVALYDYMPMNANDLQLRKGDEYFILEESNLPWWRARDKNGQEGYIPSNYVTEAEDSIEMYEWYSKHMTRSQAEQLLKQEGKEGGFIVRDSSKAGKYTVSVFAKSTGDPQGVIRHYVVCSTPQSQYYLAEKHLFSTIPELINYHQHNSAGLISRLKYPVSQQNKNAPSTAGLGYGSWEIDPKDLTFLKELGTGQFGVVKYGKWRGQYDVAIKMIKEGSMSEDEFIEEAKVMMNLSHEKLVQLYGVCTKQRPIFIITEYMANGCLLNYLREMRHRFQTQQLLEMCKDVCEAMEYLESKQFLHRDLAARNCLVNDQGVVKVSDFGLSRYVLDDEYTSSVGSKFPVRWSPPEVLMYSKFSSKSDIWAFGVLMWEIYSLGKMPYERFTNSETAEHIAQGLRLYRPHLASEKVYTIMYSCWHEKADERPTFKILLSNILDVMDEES
Briefly: Kinase activity inhibition assay (HTRF TK Kit). An outline of the steps: as §1

The next experiment deals with T5, BTK T474I (Homo sapiens, UniProt Q06187, T474I).
T5 construct: purchased SignalChem B10-12HH
T5 sequence (Q06187 whole entry T474I): as the sequence (Q06187 whole entry) above, with T474I counted along it
In words: Kinase activity inhibition assay (HTRF TK Kit). The procedure, abridged: as §1

A further experiment concerns the target T6, BTK C481S (Homo sapiens, UniProt Q06187, C481S).
T6 construct: purchased Carna 08-547
In words: Kinase activity inhibition assay (HTRF TK Kit). The procedure, abridged:
as §1

Some results are limits rather than exact numbers.

T6 sequence (Q06187 whole entry C481S): as the sequence (Q06187 whole entry) above, with C481S counted along it

Consider “N-(4-(3-amino-7-(1-(difluoromethyl)-1H-pyrazol-3-yl)-1H-pyrazolo[4,3-c]pyridin-4-yl)benzyl)-5-fluoro-2-methoxybenzamide [Example 29]”, for which the IC50 at EGFR is 5 to 50 nM; on ITK it was 50 to 500 nM; on TEC, 5 to 50 nM; on BTK kinase, at most 1 nM; at BTK T474I, 5 to 50 nM; at BTK C481S, at most 1 nM.
